Reference: patent publication US20240122932A1, “Methods of Treating B-Cell Malignancy Using Bcl-2 Inhibitor” (BeiGene Switzerland GmbH, priority 2021, published 2024)

Assays:
[1] = system: patients with R/R B-cell malignancies; experiment: phase 1 clinical study: safety, tolerability, DLT, MTD; format: in vivo
Method: A phase 1 study (dose escalation and safety expansion) to determine safety, tolerability, maximum tolerated dose ([…]), and recommended phase 2 dose (RP2D) of Compound 1 in patients with R/R B-cell malignancies was conducted. (Table 6-1A).
Dose-escalation (Part 1) occurs in independent cohorts categorized by patient disease type. These cohorts are continued until a recommended Phase 2 dose (RP2D) is identified, which is then used in corresponding expansion cohorts (Part 2).
Part 1 Monotherapy Ramp-Up Schedule and Dose Finding • 1) Cohort 1A: Cohort 1A consists of patients with relapsed/refractory B-cell non-Hodgkin lymphoma (R/R B-cell NHL) excluding mantle cell lymphoma (MCL). These patients are expected to be at low risk of tumor lysis syndrome (low TLS risk), and are treated with a short ramp-up schedule reaching target dose on Day 3. Patients in this cohort receive escalating doses of Compound 1 monotherapy: 40 mg, 80 mg, 160 mg, 320 mg, and 640 mg (unless adjusted by Safety Monitoring Committee [SMC] recommendation). • 2) Cohort 1B is opened, when ≥1 tolerable dose level of Cohort 1A was determined. It consists of patients with low-tumor-burden R/R CLL/SLL. This cohort pursues dose finding, including evaluation of both ramp-up schedule and target dose. Patients increase the ramp-up dose weekly until the target dose for the cohort is reached. The ramp-up steps is 1 mg, 2 mg, 5 mg, 10 mg, 20 mg, 40 mg, 80 mg, 160 mg, 320 mg, and 640 mg (unless adjusted by SMC recommendation). […]. • 3) Cohort 1C: This Cohort consists of patients with high-tumor-burden R/R chronic lymphocytic leukemia/small lymphocytic lymphoma (R/R CLL/SLL). This cohort will not be dosed until the RP2D for Cohort 1B is established. The objective of this cohort is to confirm, in patients with high-tumor-burden CLL/SLL, the safety of the monotherapy ramp-up schedule and RP2D established in patients with low-tumor-burden CLL/SLL. • 4) Cohort 1D: This Cohort consists of patients with R/R MCL. This cohort will not be dosed until the RP2D for Cohort 1B is established. The objective of this cohort is to confirm, in patients with R/R MCL, the safety of the monotherapy ramp-up schedule and RP2D established in patients with low tumor-burden CLL/SLL. • Cohort 1D′: This Cohort consists of patients with R/R MCL. And, the target dosage are 160 and 320 mg. • 5) Cohort 1E: This Cohort consists of patients with R/R waldenstrom macroglobulinemia (R/R WM). This cohort will not be dosed until the RP2D for Cohort 1B is established. The objective of this cohort is to confirm, in patients with R/R WM, the safety of the monotherapy ramp-up schedule and RP2D established in patients with low tumor-burden CLL/SLL.
All dose cohorts would be reviewed by a safety monitoring committee (SMC) before opening subsequent dose levels or declaring an MTD/RP2D.
The study also includes dose escalation and expansion cohorts for the combination of Compound 1 and Bruton tyrosine kinase (BTK) inhibitor Zanubrutinib in patients with selected B-cell malignancy, such as CLL/SLL and mantle cell lymphoma (MCL). (Table 6-2A). Patients in the combination therapy cohorts receive Zanubrutinib 320 mg daily (160 mg twice a day [BID] or 320 mg once a day [QD]) beginning 8-12 weeks before Compound 1 is introduced. And, the corresponding dose-escalation and expansion are conducted in Part 3 and Part 4):
Dose finding is pursued in Patients with R/R CLL/SLL or R/R MCL who are Bel-2-inhibitor naive and have not progressed on a BTK inhibitor, including evaluation of ramp-up schedule and target dose of Compound 1 when used in combination with Zanubrutinib. The Compound 1 dose vary but the Zanubrutinib dose is fixed at 320 mg/day (160 mg twice daily or 320 mg once daily). The ramp-up dose increases weekly until the target dose for the cohort is reached. […]

[2] = system: JeKo-1 human mantle cell lymphoma (MCL) subcutaneous xenograft; experiment: JeKo-1 human MCL subcutaneous xenograft model, Bcl-2 inhibitor with BTK inhibitor; format: in vivo, NCG mice; conditions: for TGI (%): day 21
Method: JeKo-1 cells were maintained as suspension cell cultures at 37° C. in a 5% CO2 atmosphere. Five to six-week-old female NCG mice were purchased from Gempharmatech of Information Technology Center. All animals were maintained under specific pathogen free (SPF) “full barrier” condition with free access to food and water. […] Mice were fed with complete granulated feed with Co60 radiosterilization (Beijing Ke Ao Xie Li Feed Co., Ltd.). All experiments were carried out in accordance with BeiGene's IACUC.
Re-suspended cells were placed on ice prior to inoculation. […] Each animal was injected subcutaneously with 1×10^7 cells in 200 μL of cell suspension in the right front flank via a 26-gauge needle. After implantation, primary tumor volume was measured in two dimensions using a caliper.
Transplanted animals were randomized into 8 groups with 10 mice per group on day 0 according to transplantation sequence and body weight. […] Treatments were administered by oral gavage (p.o.) in a volume of 10 mL/kg body weight. Body weight was assessed immediately before dosing and volume dosed was adjusted accordingly.
Individual body weight was recorded twice weekly, with mice being monitored daily for clinical signs of toxicity for the duration of the study. Mice were euthanized using carbon dioxide when their tumor volume reached 2,000 mm^3, the tumor was ulcerated, or body weight loss exceeded 20%.
Tumor volume (TV) was calculated using the formula: TV=0.5×(a×b^2) where a and b are the long and short diameters of the tumor, respectively. […] (treated t=treated tumor volume at time t, vehicle t=vehicle tumor volume at time t)

[3] = 36 patients, monotherapy N = 25, combination therapy N = 11
[4] = 58 patients, monotherapy n = 32, combination n = 26

CC(C)c1ccccc1[C@@H]1CCCN1C1CC2(CCN(c3ccc(C(=O)NS(=O)(=O)c4ccc(NCC5CCC(C)(O)CC5)c([N+](=O)[O-])c4)c(Oc4cnc5[nH]ccc5c4)c3)CC2)C1 (stereo partly drawn) [Compound 1, 2-((1H-pyrrolo[2,3-b]pyridin-5-yl)oxy)-N-((4-((((1r,4r)-4-hydroxy-4-methylcyclohexyl)methyl)amino)-3-nitrophenyl)sulfonyl)-4-(2-((S)-2-(2-isopropylphenyl)pyrrolidin-1-yl)-7-azaspiro[3.5]nonan-7-yl)benzamide]
AEs, n (%): AEs leading to discontinuation of Compound 1 [1, 3]: 1 n (%) | AEs, n (%): AEs leading to dose reduction of Compound 1 [1, 3]: 0 n (%) | AEs, n (%): AEs leading to hold of Compound 1 [1, 3]: 4 n (%) | AEs, n (%): Grade ≥3 AEs [1, 3]: 11 n (%) | AEs, n (%): Serious AEs [1, 3]: 9 n (%) | AEs, n (%): Total [1, 3]: 22 n (%) | AEs, n (%): Leading to death ([1]; 36 patients, monotherapy N = 25, combination therapy N = 11, neither death related to study drug): 2 n (%) | Diarrhea, All Grade, n (%) [1, 4]: 8 n (%) | Diarrhea, Grade ≥3, n (%) [1, 4]: 0 n (%) | Fatigue, All Grade, n (%) [1, 4]: 8 n (%) | Fatigue, Grade ≥3, n (%) [1, 4]: 0 n (%) | Headache, All Grade, n (%) [1, 4]: 5 n (%) | Headache, Grade ≥3, n (%) [1, 4]: 0 n (%) | Nausea, All Grade, n (%) [1, 4]: 12 n (%) | Nausea, Grade ≥3, n (%) [1, 4]: 0 n (%) | DLTs ([1]; Cohort 1A NHL, monotherapy, 40-mg (n=3), 80-mg (n=4) and 320-mg (n=3) dose cohorts): no disease-limiting toxicities (DLTs) | DLTs ([1]; Cohort 1A NHL, monotherapy, 160-mg (n=3+1) dose cohort): one DLT of grade 3 febrile neutropenia | MTD ([1]; Cohort 1A NHL, monotherapy, all dose cohorts completed): no MTD reached through 640 mg | DLTs ([1]; Cohort 1B R/R CLL, monotherapy, 80 mg target dose level (n=4)): one DLT of grade 4 neutropenia | patients with grade ≥3 neutropenia ([1]; monotherapy): 5 patients | patients with neutropenia ([1]; monotherapy): 6 patients | Abdominal Pain, All Grade, n (%) ([1]; monotherapy n = 32): 4 n (%) | Abdominal Pain, Grade ≥3, n (%) ([1]; monotherapy n = 32): 2 n (%) | Constipation, All Grade, n (%) ([1]; monotherapy n = 32): 5 n (%) | Constipation, Grade ≥3, n (%) ([1]; monotherapy n = 32): 0 n (%) | Dizziness, All Grade, n (%) ([1]; monotherapy n = 32): 5 n (%) | Dizziness, Grade ≥3, n (%) ([1]; monotherapy n = 32): 0 n (%) | Fall, All Grade, n (%) ([1]; monotherapy n = 32): 5 n (%) | Fall, Grade ≥3, n (%) ([1]; monotherapy n = 32): 2 n (%) | Neutropenia, All Grade, n (%) ([1]; monotherapy n = 32): 8 n (%) | Neutropenia, Grade ≥3, n (%) ([1]; monotherapy n = 32): 6 n (%) | Oedema peripheral, All Grade, n (%) ([1]; monotherapy n = 32): 4 n (%) | Oedema peripheral, Grade ≥3, n (%) ([1]; monotherapy n = 32): 0 n (%) | Pyrexia, All Grade, n (%) ([1]; monotherapy n = 32): 6 n (%) | Pyrexia, Grade ≥3, n (%) ([1]; monotherapy n = 32): 1 n (%) | Thrombocytopenia, All Grade, n (%) ([1]; monotherapy n = 32): 4 n (%) | Thrombocytopenia, Grade ≥3, n (%) ([1]; monotherapy n = 32): 2 n (%) | Urinary tract infection, All Grade, n (%) ([1]; monotherapy n = 32): 4 n (%) | Urinary tract infection, Grade ≥3, n (%) ([1]; monotherapy n = 32): 0 n (%) | laboratory TLS ([1]; monotherapy, one high-risk patient with CLL, resolved with no intervention): < 2% | tolerable dose ([1]; result of 58 patients, monotherapy or in combination with Zanubrutinib, MTD not yet reached): ≤ 640 mg | Mean TV (D 21) (mm^3 ± SEM) ([2]; 5 mpk p.o. QD): 1293.3 ± 100.0 mm^3 | Mean TV (D 21) (mm^3 ± SEM) ([2]; 15 mpk p.o. QD): 929.5 ± 73.6 mm^3 | Mean TV (D 21) (mm^3 ± SEM) ([2]; 50 mpk p.o. QD): 927.5 ± 100.6 mm^3 | TGI (%) ([2]; 5 mpk p.o. QD, 5 mg/kg): 29% | TGI (%) ([2]; 15 mpk p.o. QD, 15 mg/kg): 49% | TGI (%) ([2]; 50 mpk p.o. QD, 50 mg/kg): 49%
